Values after ≈ are worked out from the molar mass of the structure shown.
Columns and labels:
Escherichia coli O157:H7 = assay: Broth microdilution assay (MIC); type: cell-based; conditions: BHI broth, 37° C., 24 h, no visible growth
Procedure: (§1) From the frozen stock (−80° C.), bacteria were inoculated into brain-hear infusion (BHI) agar (Becton Dickinson, Franklin Lakes, N.J.) and propagated under aerobic conditions at 37° C. for 24 h. After the incubation, one colony of each bacterial strain was transferred to BHI broth (Becton Dickinson, Franklin Lakes, N.J.) and sub-cultured at least twice into BHI before being used in experiments.
(§2) The minimal inhibitory concentration (MIC) of CAms were identified using a broth microdilution assay modified from previous studies. Briefly, the stock solutions of CAMs were first prepared by dissolving in double-distilled water (ddH2O) and then diluted in BHI broth at pre-determined concentrations. Further serial 2-fold dilutions were performed in a 96-well microplate (Becton Dickinson, Franklin Lakes, N.J.) with BHI broth. The inoculum concentration was adjusted to 5×10^6 CFU/mL with ultraviolet-visible (UV-vis) spectroscopy at 600 nm. An equal volume (100 μL) of bacterial suspension was added to each microplate well with a final volume of 200 μL. Plates were incubated at 37° C. for 24 h under aerobic conditions. The lowest CAm concentration that yielded no visible growth was recorded as the MIC. Cetyltrimethylammonium bromide (CTAB), a cationic amphiphile, served as a positive control that could mimic the proposed bactericidal mechanism of the newly synthesized tartaric acid-based compounds.
(§3) CAms were evaluated against five selected pathogenic microorganisms, including Gram-positive bacteria (i.e., S. aureus and L. monocytogenes) and Gram-negative bacteria (i.e., E. coli, S. typhimurium, and P. aeruginosa), using a turbidity-based microdilution method. MICs were taken as the lowest concentrations that inhibited the visible bacterial growth. […] The higher MIC values for the Gram-negative bacteria could be attributed to the presence of an additional lipopolysaccharide layer, which forms a hydrophilic barrier that could prevent penetration of the highly hydrophobic CAms.

[1] = test system: Listeria monocytogenes Scott A; assay: Broth microdilution assay (MIC); type: cell-based; conditions: BHI broth, 37° C., 24 h, no visible growth
Procedure: as §1, §2, §3

[2] = test system: Pseudomonas aeruginosa ATCC 15442; assay: Broth microdilution assay (MIC); type: cell-based; conditions: BHI broth, 37° C., 24 h, no visible growth
Procedure: as §1, §2, §3

[3] = test system: Staphylococcus aureus ATCC 13565; assay: Broth microdilution assay (MIC); type: cell-based; conditions: BHI broth, 37° C., 24 h, no visible growth
Procedure: as §1, §2, §3

[4] = test system: Salmonella enterica serovar typhimurium; assay: Broth microdilution assay (MIC); type: cell-based; conditions: BHI broth, 37° C., 24 h, no visible growth
Procedure: as §1, §2
CAms were evaluated against five selected pathogenic microorganisms, including Gram-positive bacteria (i.e., S. aureus and L. monocytogenes) and Gram-negative bacteria (i.e., E. coli, S. typhimurium, and P. aeruginosa), using a turbidity-based microdilution method. MICs were taken as the lowest concentrations that inhibited the visible bacterial growth.

[5] = test system: Gram-positive and Gram-negative bacteria; assay: Broth microdilution assay, whole panel; type: cell-based; conditions: 250 μg/mL
Procedure: as §1
as §2, with “Plates were incubated at 37° C. for 24 h under aerobic conditions.” left out, “Cetyltrimethylammonium bromide (CTAB), a cationic amphiphile, served as a positive control that could mimic the proposed bactericidal mechanism of the newly synthesized tartaric acid-based compounds.” left out
CAms were evaluated against five selected pathogenic microorganisms, including Gram-positive bacteria (i.e., S. aureus and L. monocytogenes) and Gram-negative bacteria (i.e., E. coli, S. typhimurium, and P. aeruginosa), using a turbidity-based microdilution method. […]

[6] = test system: G. vaginalis pre-formed biofilms; assay: MBC-B against pre-formed biofilms (Example 2); type: cell-based; conditions: ≥3 log reduction in viable cells
Procedure: The minimum biofilm bactericidal concentrations (MBC-Bs) of the cationic amphiphiles against pre-formed biofilms of L. monocytogenes and G. vaginalis were identified. The biofilms of the two targeted microorganisms were grown in 96-well plates according to established methodology for Gram-positive and Gram-variable bacteria (Tabak et al., FEMS microbiology letters. 2009; 301(1):69-76). To identify the reduction in the number of biofilm-associated viable cells treated with different concentrations of cationic amphiphiles, the spot plate method was used (Turovskiy et al., Infectious diseases in obstetrics and gynecology. 2012; 2012:284762, 9 pages). In brief, biofilms were washed, disrupted, diluted 10^1-10^8 times with fresh medium and the samples plated on suitable solid medium.

[7] = test system: planktonic cells of G. vaginalis; assay: Checkerboard assay, planktonic cells; type: cell-based, Gardnerella vaginalis
Procedure: To evaluate the potential effectiveness of the antimicrobial combinations on planktonic and biofilm cells, a checkerboard assay was performed following Algburi et al. (Algburi et al., 2015. Path Dis 73(5)) with minor modifications. For planktonic cells, the overnight grown G. vaginalis was diluted to approximately 10^6 CFU/ml. Each antimicrobial agent was diluted twofold with sBHI broth into two separate 96-well non-tissue culture microplates. From each dilution of antimicrobial B, 50 μl was added horizontally over 50 μl of antimicrobial A. Then, 100 μl of bacterial suspension (10^6 CFU/ml) was separately added to the predetermined concentration of antimicrobial combinations. The MIC of each combination was determined after 24 h of incubation.
(§4) Isobolograms were used to compare the MIC and MBC-B values of each antimicrobial alone with its MIC and MBC-B values in combination with other antimicrobials. The point on the axis (X) refers to MIC or MBC-B values of the first antimicrobial with the coordinates (0, x), and the point on the axis (Y) represents the MIC or MBC-B values of the second antimicrobial with the coordinates (y, 0) when they used alone. The two MIC or MBCs-B values are connected by a dashed line (Turovskiy Y, Chikindas M L. 2011 Probiotics Antimicrob Proteins 3:144-149). The MICs or MBCs-B of each antimicrobial combination are plotted as dots on the graph. Results are expressed according to the locations of these dots from the line that connects MICs or MBCs-B of the first and second antimicrobials. When MICs or MBCs-B values are located under the line, the two combining antimicrobials are synergized, but antagonized against the tested microorganism when these dots of interaction are above. An additive effect is observed when these dots are located on the line.

biofilms of G. vaginalis = assay: Checkerboard assay, biofilm cells; type: cell-based, Gardnerella vaginalis
Procedure: For biofilm formation, the overnight culture of G. vaginalis was diluted to approximately 10^7 CFU/ml and 200 μl was transferred into a 96-well tissue culture microplate and incubated anaerobically at 37° C. for 24-36 h. Following biofilm formation and removal of non-adherent cells by washing the biofilm twice with BHIG, each antimicrobial was diluted twofold separately with BHIG broth into two 96-white deep-well microplates. From each dilution of antimicrobial B, 125 μL was added horizontally over 125 μL of antimicrobial A (see FIG. 1 of Algburi et al., 2015. Path Dis 73(5)). From each combination, 200 μL samples were added to the biofilm in sequence, and the microplate was incubated for 24 h at 37° C. under anaerobic conditions. The spot plate method was utilized for counting the number of CFU/ml and evaluating the bactericidal activity (MBC-B) of each antimicrobial combination against biofilm-associated G. vaginalis. Isobolograms were used to analyze the nature of antimicrobial interaction, which is classified as synergistic, antagonistic or additive activity against the planktonic and biofilm cells.
as §4

vaginal lactobacilli = assay: MIC against vaginal lactobacilli; type: cell-based, Lactobacillus species
Procedure: According to Clinical and Laboratory Standards Institute (CLSI 2010), the MIC is defined as the lowest concentration of antimicrobial compound producing no visible growth or complete inhibition of bacterial growth during 24 h. To determine MIC values, the broth microdilution assay was performed according to Algburi et al. (Algburi et al., 2015. Path Dis 73(5)) with minor modifications. Briefly, the overnight-grown cells were diluted with their suitable culture medium to approach ˜10^6 CFU/ml. The number of bacterial cells was identified using spot plate method (Turovskiy et al., 2012. Infect Dis Obstet Gynecol 2012:284762). The CAms were serially diluted twofold with sBHI into a non-tissue culture 96-well microplate plate (Falcon, Corning Incorporated, Corning, N.Y., USA) resulting in a final volume of 100 μl for each well. Aliquots of 100 μl of the diluted cell suspension (˜10^6 CFU/ml) were added to each well of a microplate that was treated with different concentrations of CAms. To avoid culture medium evaporation, 75 μl of mineral oil (Sigma-Aldrich, St. Louis, Mo.) was added to each treated well. The microplate was then transferred to the plate reader (Model 550, Bio-Rad Laboratories, Hercules, Calif., USA) and incubated at 37° C. for 24-36 h. The kinetic reading was statistically analyzed, and the MIC and sub-MIC of each CAm compound were determined.

CCCCCCCCCCCCOC(C(=O)NCCN)C(OCCCCCCCCCCCC)C(=O)NCCN.Cl.Cl (stereo not shown) [5c]
MIC E. coli (G−) (Escherichia coli O157:H7): >250 µg/mL | MIC L. monocytogenes (G+) [1]: 125 µg/mL | MIC P. aeruginosa (G−) [2]: >250 µg/mL | MIC S. aureus (G+) [3]: 3.9 µg/mL | MIC S. typhimurium (G−) [4]: >250 µg/mL | antimicrobial activity at the highest concentration tested [5]: didn't show appreciable antimicrobial activity

CCCCCCCCCCCC(=O)OC(C(=O)NCCN)C(OC(=O)CCCCCCCCCCC)C(=O)NCCN.Cl.Cl (stereo not shown) [8c]
MIC E. coli (G−) (Escherichia coli O157:H7): >250 µg/mL | MIC L. monocytogenes (G+) [1]: >250 µg/mL | MIC P. aeruginosa (G−) [2]: >250 µg/mL | MIC S. aureus (G+) [3]: 15.6 µg/mL | MIC S. typhimurium (G−) [4]: >250 µg/mL | antimicrobial activity at the highest concentration tested [5]: didn't show appreciable antimicrobial activity

CCC[C@@H]1C[C@@H](C(=O)N[C@@H]([C@H]2O[C@H](SC)[C@H](O)[C@@H](O)[C@H]2O)[C@H](C)Cl)N(C)C1 [clindamycin, reference compound]
MBC ([6]; Gardnerella vaginalis, pre-formed biofilm): 20000 µg/mL (≈ 47.1 mM)

Cc1ncc([N+](=O)[O-])n1CCO [metronidazole, reference compound]
MBC-B, biofilm-associated G. vaginalis [6]: 500 µg/mL (≈ 2.92 mM) | metronidazole's MIC in combination with the tested CAms [7]: 4.7 µM | MIC ([7]; Gardnerella vaginalis, read-out: MIC when used alone): 37.4 µM | metronidazole's MIC against biofilms in combination with the tested CAms (biofilms of G. vaginalis): 11.1 µM | metronidazole's MIC against biofilms, metronidazole alone (biofilms of G. vaginalis): 40.4 µM | concentration that inhibited the growth of vaginal lactobacilli (vaginal lactobacilli): > 1168.5 µM

— US10759740B2, “Antibacterial agents” (Rutgers, The State University of New Jersey, priority 2016, dated 2020)
